According to patent US20230122393A1, “STEROIDAL NITRONE F2 FOR USE IN THE PREVENTION AND/OR TREATMENT OF PERMANENT CEREBRAL ISCHAEMIA” (ISQUAEMIA BIOTECH, S.L., priority 2020, published 2023):
“Also recorded” adds a separate entry of the source.

Key:
[1] = tested on: transient focal cerebral ischemia (tMCAO); experiment: Infarct volume by TTC staining after tMCAO; format: in vivo, mice; settings: 48 h; for infarct volume (as percentages): VEH 19.15±1.08
[2] = tested on: permanent focal cerebral ischemia (pMCAO); experiment: Infarct area/volume by TTC staining after permanent MCA occlusion (pMCAO); format: in vivo, mice; settings: F2 0.1 mg/kg i.p. at 2 and 12 hours after MCA occlusion
global cerebral ischemia [3] = experiment: Therapeutic window of the neuroprotective effect in global cerebral ischemia; format: in vivo, rat
[4] = tested on: primary neuronal cultures subjected to oxygen and glucose deprivation; settings: reference [17]; cited from earlier work
[5] = tested on: lipid peroxidation and ROS levels; settings: preliminary results, reference [17]; cited from earlier work
global cerebral ischemia [6] = settings: intraperitoneal at onset of reperfusion; reference [17]; cited from earlier work
[7] = tested on: permanent focal cerebral ischemia (pMCAO); experiment: Somatosensory evoked potentials after permanent MCA occlusion (pMCAO); settings: F2 0.1 mg/kg i.p. at 2 and 12 h; 72 hours post-stroke and during total time of study (3 weeks)
Experimental: Evaluation of functional brain territory in stroke mice with pMCAO and treated with F2. (A) Representative somatosensory evoked contralateral potentials recorded before and 72 hours post-stroke in treated (F2) and non-treated (vehicle, control) mice. F2 was administered at 2 and 12 hours after MCA ligation. […] In both groups, the electrical stimulus was twice the current level necessary to obtain a supramaximal motor response, typically 1-2 mA. (B) Amplitude of evoked activity in the somatosensory cortex (forepaw sensory field) in the infarcted (left panel) and non-infarcted (right panel) hemispheres of non-treated (vehicle) and treated (F2) mice over time after stroke. […] Data are presented as the means ±SEM. For every time point analysed, the black asterisks denote significant differences between non-treated (vehicle) and treated (F2) mice (two-way ANOVA followed by Tukey's test; *p<0.05, **p<0.05).
Ipsilateral activity in stroke mice with pMCAO and treated with F2. […] (C) Amplitude of somatosensory evoked activity (forepaw sensory field) in the non-damaged hemisphere of non-treated (vehicle) and treated (F2) mice over time after stroke and F2 or vehicle administration.
Here, the neuroprotective efficacy of this nitrone has been assayed in a model of permanent focal cerebral ischemia in mice. […]

global cerebral ischemia [8] = experiment: Y-maze exploration activity test, long-term after global cerebral ischemia; settings: i.v. at onset of reperfusion, before sacrifice at 11 weeks, vs healthy control
Experimental: (§1) In addition, animal behaviour was evaluated before sacrifice for the neurological evolution evaluation.
(§2) Animals were subjected to two behavioural tests for their neurological evaluation prior to sacrifice in order to assess the exploratory activity and spatial recognition and memory; the Y-maze paradigm was used to assess these functions. For the first test, the animal is positioned in the centre of the maze, allowing free exploration for 8 minutes. Exploratory activity is quantified and represented as an activity index. For the assessment of the spatial recognition and memory, the number of times the animals alternate among the three arms (triad number) is evaluated and quantified as an alternation index. Lower activity and/or alternation indexes are indications of reduced curiosity and spatial memory and consequently higher neurological deficit.

[9] = tested on: transient focal cerebral ischemia (tMCAO); experiment: Grip strength test after transient middle cerebral artery occlusion (tMCAO); settings: for grip strength: 24 hours after reperfusion, VEH 91.76±2.00
Experimental: Transient occlusion of a distal branch of the middle cerebral artery (tMCAO) was induced in male C57BL/6 mice (9-12-week-old, Charles River). […] Briefly, mice were anesthetized with 4% isoflurane for induction and 1.5-2% isoflurane for maintenance (in 79% N2/21% 02). After drilling a small hole on the temporal bone, the middle cerebral artery (MCA) was compressed for 60 min with a 30-G needle using a micromanipulator. During the surgery, body temperature was maintained at 37.0±0.5° C. using a homoeothermic blanket and CBF was monitored using laser-Doppler flowmetry to confirm MCA occlusion. Buprenorphine (0.05-0.1 mg/kg) was administered subcutaneously immediately before the procedure. […] Surgical inclusion criteria: a reduction in blood flow to <25% of baseline value during ischemia period, and a recovery of 75% of baseline value in the reperfusion period. […] The treatments were administered intraperitoneally at the onset of reperfusion period by an investigator blinded to the experimental condition.
Motor functional test was performed at 1 day before surgery and 24 h and 48 h after tMCAO to evaluate ischemic outcomes and monitor motor function by a blinded researcher to experimental conditions. […] A total of 6 trials were conducted for each test and the strength value was calculated as the mean of them.

global cerebral ischemia [10] = experiment: Neurological deficit score (NDS), therapy window study in global cerebral ischemia; settings: 5 d
Experimental: Animal model of global cerebral ischemia, experimental design and administration of nitrones. Transient forebrain ischemia was induced in adult male Wistar rats (10-12 weeks, Charles River) by the standard four-vessel occlusion model (4V0) previously described. Briefly, both vertebral arteries were irreversibly occluded by electrocoagulation under anaesthesia with a mixture of atropine, ketamine and diazepam (0.25, 62.5, and 5 mg/kg, respectively) administered by intraperitoneal injection. After 24 h, ischemia was induced by carotid occlusion with atraumatic clips for 15 min and then clips were removed from the carotid arteries to allow reperfusion. Body temperature of 37° C. was maintained. Animals were studied at 5 days after reperfusion (R5d). […] Vehicle-treated control animals were handled in the same way as treated animals.
Evaluation of neurological deficits. Neurological deficits in rats subjected to global cerebral ischemia were blindly evaluated using a scale previously described (Ayuso et al. 2015 J. Med. Chem. 58, 6704-6709; 10.1021/acs.jmedchem.5b00755). […]
Animals were subjected to a functional test before sacrifice in order to quantify their potential disability. […]
The variables quantified to evaluate de neuroprotection of NXY-059, including neurological deficit score (NDS) and neuronal death and apoptosis in brain sections, were performed as described in Example 3. […]

[11] = tested on: global cerebral ischemia, hippocampal CA1 and cortical regions; experiment: Neuronal apoptosis by TUNEL assay, therapy window study in global cerebral ischemia; settings: 5 d
Experimental: Animal model of global cerebral ischemia, experimental design and administration of nitrones. Transient forebrain ischemia was induced in adult male Wistar rats (10-12 weeks, Charles River) by the standard four-vessel occlusion model (4V0) previously described. Briefly, both vertebral arteries were irreversibly occluded by electrocoagulation under anaesthesia with a mixture of atropine, ketamine and diazepam (0.25, 62.5, and 5 mg/kg, respectively) administered by intraperitoneal injection. After 24 h, ischemia was induced by carotid occlusion with atraumatic clips for 15 min and then clips were removed from the carotid arteries to allow reperfusion. Body temperature of 37° C. was maintained. Animals were studied at 5 days after reperfusion (R5d). […] The treatments were performed with allocation concealment, assigning a random order to each vehicle or treated animal by a computer-generated randomization program. […] Vehicle-treated control animals were handled in the same way as treated animals. An independent investigator prepared the treatments for each animal according to the randomization schedule.
(§3) Brain sections. After 5 days after reperfusion, R5d animals were killed by transcardiac perfusion performed under deep anaesthesia. Perfusion via left ventricle was started with a washout of 200 mL of 0.9% NaCl, and the brains, following perfusion and fixation with 4% (w/v) paraformaldehyde solution in PBS, were removed and postfixed in the same solution overnight at 4° C. Brains were washed sequentially with 10, 20 and 30% (w/v) saccharose in PBS, embedded in Tissue-Tek O.C.T. (Sakura Finetek) and frozen at −80° C. prior to cryostat sectioning. Brain coronal sections containing the hippocampus were prepared at the level of interaural +5.7±0.2 mm on Real Capillary Gap microscope slides (Dako).
TUNEL assay. Apoptotic neurons within brain sections were detected using the Terminal deoxynucleotidyl transferase-mediated dUTP Nick-End Labeling (TUNEL) assay (Promega). For this test, 5-μm-thick coronal cryostat brain sections containing the dorsal hippocampal formation were obtained as described above and post-fixed with 4% formaldehyde in PBS for 5 min at room temperature. After washing in PBS for three times, sections were permeabilized with 0.1 M sodium citrate, pH 6.0, for 1 min at 95° C., quickly cooled in ice and washed in PBS for 5 min at room temperature. Then, brain sections were incubated with blocking solution (0.1 M Tris-HCl, pH 7.5, 3% bovine serum albumin and 20% fetal bovine serum), washed in PBS for 5 min, and post-fixed with 4% formaldehyde in PBS for 5 min. […]
The hippocampal CA1 subfield and cerebral and lateral cortex fields from a given section were analysed with fluorescence microscopy (40× objective) to count the number of apoptotic nuclei (green).

global cerebral ischemia [12] = experiment: Y-maze spatial recognition or alternation test, long-term after global cerebral ischemia; settings: i.v. at onset of reperfusion, before sacrifice at 11 weeks, vs healthy control
Experimental: as §1, §2

[13] = tested on: global cerebral ischemia, hippocampal CA1 and cortical regions; experiment: Neuronal death by Fluoro-Jade B staining, therapy window study in global cerebral ischemia; settings: 5 d
Experimental: Animal model of global cerebral ischemia, experimental design and administration of nitrones. Transient forebrain ischemia was induced in adult male Wistar rats (10-12 weeks, Charles River) by the standard four-vessel occlusion model (4V0) previously described. Briefly, both vertebral arteries were irreversibly occluded by electrocoagulation under anaesthesia with a mixture of atropine, ketamine and diazepam (0.25, 62.5, and 5 mg/kg, respectively) administered by intraperitoneal injection. After 24 h, ischemia was induced by carotid occlusion with atraumatic clips for 15 min and then clips were removed from the carotid arteries to allow reperfusion. Body temperature of 37° C. was maintained. Animals were studied at 5 days after reperfusion (R5d). […] Ischemic animals were treated with nitrone F2 diluted in 10% ethanol in saline as vehicle by intravenous injection in the tail when the carotid arteries were unclamped for reperfusion. Vehicle-treated control animals were handled in the same way as treated animals.
After 5 days after reperfusion, R5d animals were killed by transcardiac perfusion performed under deep anaesthesia. Perfusion via left ventricle was started with a washout of 200 mL of 0.9% NaCl, and the brains, following perfusion and fixation with 4% (w/v) paraformaldehyde solution in PBS, were removed and postfixed in the same solution overnight at 4° C. Brains were washed sequentially with 10, 20 and 30% (w/v) saccharose in PBS, embedded in Tissue-Tek O.C.T. (Sakura Finetek) and frozen at −80° C. prior to cryostat sectioning. Brain coronal sections containing the hippocampus were prepared at the level of interaural +5.7±0.2 mm on Real Capillary Gap microscope slides (Dako).
(§4) Neuronal death evaluation. Neuronal death was evaluated by Fluoro-Jade-B staining. Brain cryosections (10 μm thick) from ischemic animals that underwent reperfusion for 5 days were used after fixation to detect neuronal death by Fluoro-Jade-B staining (Ayuso et al. 2015 J. Med. Chem. 58, 6704-6709; 10.1021/acs.jmedchem.5b00755) and visualized by fluorescence microscopy. Labelled (dead) neuronal cells (in green) were counted as in TUNEL assay (see below). Data from different animals of each experimental group were independently analysed by two observers, and treatment information was blindly performed throughout the study.
Analysis of results included neuronal damage and death, and a functional test to which the animals were subjected prior to sacrifice. All the results were obtained 5d after post-ischemic reperfusion in a model of global cerebral ischemia.

SOD1 = SOD1 protein levels by western blot in primary neuronal cultures subjected to OGD and recovery
Experimental: Primary Neuronal Cultures. […] Cell suspensions from cerebral cortex were prepared from 16- to 17-day-old Sprague-Dawley rat embryos. Living cells in cell suspension were counted by trypan blue exclusion method. Cells were seeded on plastic multidishes precoated with 0.05 mg/mL poly-D-lysine at a density of 2.5×10^5 cells/cm2 and were kept at 37° C. in a 6.5% CO2 atmosphere in high glucose Dulbecco's medium supplemented with 15% heat-inactivated (56° C. for 30 min) foetal calf serum. […]
Exposure of Cell Cultures to Oxygen—Glucose Deprivation. […] F2 were analysed independently from 4 to 8 times with different batches of cultures, and each experiment was run in quadruplicate.
35-50 μg of protein cell extracts was resolved in 10 or 12% SDS-PAGE and blotted into a polyvinylidene difluoride (PVDF) membrane (GE Healthcare). […] Then, membranes were incubated with horseradish peroxidase-conjugated secondary antibodies for 1 h, developed with the ECL-Clarity (Bio-Rad) or Prime systems (GE Healthcare) and detected in a ChemiDoc imager (Bio-Rad).
The images were quantified using the quantification software ImageLab and Quantity One (Bio-Rad Laboratories). The protein levels were expressed as intensities in arbitrary units (AU).

[14] = tested on: global cerebral ischemia, hippocampal CA1 region; experiment: Long-term viable neurons (S6-positive cells) in hippocampal CA1 11 weeks after global cerebral ischemia; settings: i.v. at onset of reperfusion; 11 weeks (77 days) after reperfusion
Experimental: Animal model of global cerebral ischemia, experimental design and administration of nitrones. Transient forebrain ischemia was induced in adult male Wistar rats (10-12 weeks, Charles River) by the standard four-vessel occlusion model (4V0) previously described. Briefly, both vertebral arteries were irreversibly occluded by electrocoagulation under anaesthesia with a mixture of atropine, ketamine and diazepam (0.25, 62.5, and 5 mg/kg, respectively) administered by intraperitoneal injection. After 24 h, ischemia was induced by carotid occlusion with atraumatic clips for 15 min and then clips were removed from the carotid arteries to allow reperfusion. Body temperature of 37° C. was maintained. Animals were studied at 5 days after reperfusion (R5d). A power analysis was performed (http://www.biomath.info/power/ttest.htm) to determine the sample size. The level of statistical significance was fixed at 0.05, the power set at 0.8 (80%), and the sample size obtained was <6 subjects per group. The treatments were performed with allocation concealment, assigning a random order to each vehicle or treated animal by a computer-generated randomization program. […]
Because of this, a new experimental strategy had to be used, based on the staining of viable neurons and its quantification in the areas of the brain more vulnerable to the ischemic episodes such as the hippocampal CA1 region. […]

[15] = tested on: transient forebrain ischemia (global cerebral ischemia); experiment: Dose-response of neuroprotection (Fluoro-Jade B and TUNEL) in transitory global cerebral ischemia, four-vessel occlusion; settings: for half effective concentration: i.v. at onset of reperfusion; for half effective concentration / maximal effect (percentage of neuroprotection): 5 days of reperfusion
Experimental: Animal model of global cerebral ischemia, experimental design and administration of nitrones. Transient forebrain ischemia was induced in adult male Wistar rats (10-12 weeks, Charles River) by the standard four-vessel occlusion model (4V0) previously described. Briefly, both vertebral arteries were irreversibly occluded by electrocoagulation under anaesthesia with a mixture of atropine, ketamine and diazepam (0.25, 62.5, and 5 mg/kg, respectively) administered by intraperitoneal injection. After 24 h, ischemia was induced by carotid occlusion with atraumatic clips for 15 min and then clips were removed from the carotid arteries to allow reperfusion. Body temperature of 37° C. was maintained. Animals were studied at 5 days after reperfusion (R5d). […] The treatments were performed with allocation concealment, assigning a random order to each vehicle or treated animal by a computer-generated randomization program. Ischemic animals were treated with nitrone F2 diluted in 10% ethanol in saline as vehicle by intravenous injection in the tail when the carotid arteries were unclamped for reperfusion. Vehicle-treated control animals were handled in the same way as treated animals. An independent investigator prepared the treatments for each animal according to the randomization schedule.
as §3, §4
TUNEL assay. Apoptotic neurons within brain sections were detected using the Terminal deoxynucleotidyl transferase-mediated dUTP Nick-End Labeling (TUNEL) assay (Promega). For this test, 5-μm-thick coronal cryostat brain sections containing the dorsal hippocampal formation were obtained as described above and post-fixed with 4% formaldehyde in PBS for 5 min at room temperature. After washing in PBS for three times, sections were permeabilized with 0.1 M sodium citrate, pH 6.0, for 1 min at 95° C., quickly cooled in ice and washed in PBS for 5 min at room temperature. Then, brain sections were incubated with blocking solution (0.1 M Tris-HCl, pH 7.5, 3% bovine serum albumin and 20% fetal bovine serum), washed in PBS for 5 min, and post-fixed with 4% formaldehyde in PBS for 5 min.

[16] = F2 0.05 mg/kg i.v. 48 h after reperfusion

CC(C)CCC[C@@H](C)[C@H]1CC[C@H]2[C@@H]3CCC4=C/C(=[N+](\C)[O-])CC[C@]4(C)[C@H]3CC[C@]12C [F2, (E)-N-((8S,9S,10R,13R,14S,17R)-10,13-dimethyl-17-((R)-6-methylheptan-2-yl)-7,8,9,11,12,13,14,15,16,17-decahydro-1H-cyclopenta[a]phenanthren-3(2H,6H,10H)-ylidene)methanamine oxide]
decrease of infarct volume respect to NXY059 ([1]; 0.1 mg/kg F2, p<0.05): 20.27% | decrease of infarct volume respect to control VEH ([1]; 0.1 mg/kg F2, p<0.05): 15.20% | infarct volume (as percentages) ([1]; F2 0.1 mg/kg i.p. at onset of reperfusion): 16.24±0.85% | infarct volume vs vehicle [2]: significantly reduces infarct volume | infarcted area (TTC staining) vs non-treated ([2]; 48 hours): lower infarcted area | administration time of maximum neuroprotective effect after reperfusion onset (global cerebral ischemia [3]; F2 0.05 mg/kg i.v.): 0 to 3 h | therapeutic window of neuroprotective effect, time after onset of reperfusion (global cerebral ischemia [3]; F2 0.05 mg/kg i.v.): ≤ 6 h | neuroprotective effect (cell viability) after OGD [4]: good neuroprotective effect in the micromolar range | lipid peroxidation and ROS levels [5]: both decreased | neuronal death and apoptosis in hippocampus and cortex (global cerebral ischemia [6]): decreased neuronal death and apoptosis | somatosensory evoked cortical response, damaged hemisphere (right) [7]: preserved cortical response | activity index (exploration activity test, Y-maze) (global cerebral ischemia [8]): activity scores that were equivalent to those observed in the control group | grip strength ([9]; 0.05 mg/kg F2 i.p. at onset of reperfusion): 110.2±5.14 grams | grip strength ([9]; 0.1 mg/kg F2 i.p. at onset of reperfusion): 113.2±5.35 grams | grip strength values vs vehicle ([9]; F2 0.05 or 0.1 mg/kg at onset of reperfusion, 24 h and 48 h after reperfusion): improved grip strength values | neurological deficit score (NDS) vs vehicle (global cerebral ischemia [10]; [16]): did not improve the NDS | neuronal apoptosis (TUNEL) vs vehicle ([11]; F2 0.05 mg/kg i.v. at 6 h after reperfusion): significant in both hippocampus and cerebral cortex | neuronal apoptosis (TUNEL) vs vehicle ([11]; F2 0.05 mg/kg i.v. at 48 h after reperfusion): did not afford a significant decrease in the apoptosis | neuronal apoptosis (TUNEL) vs vehicle ([11]; F2 0.05 mg/kg i.v., maximum effect at 0-3 hours after onset of reperfusion): significant reduction of apoptosis | alternation index (spatial recognition test, Y-maze) (global cerebral ischemia [12]): no significant differences when compared to the scores of the control group | neuronal death (Fluoro-Jade B) vs vehicle [13, 16]: did not afford a significant decrease in the neuronal damage | neuronal death (Fluoro-Jade B) vs vehicle ([13]; F2 0.05 mg/kg i.v. between 0 and 6 h after reperfusion, CA1 and cortex): significantly decreased neuronal death | SOD1 levels (SOD1; 5 μM F2, 2 h after OGD, vs untreated and control groups): significant increase of SOD1 levels | enhancement of the SOD1 increase caused by OGD alone (SOD1; 5 μM F2, 24 h after OGD): 15% | viable neurons (S6-positive cells) in hippocampal CA1 [14]: significantly preserves neuronal viability | half effective concentration ([15]; cerebral cortex): 0.015 mg/kg | maximal effect (percentage of neuroprotection) ([15]; cerebral cortex, reached at 0.05 mg/kg i.v. at onset of reperfusion): 81% | most effective dose in decreasing neuronal death and apoptosis ([15]; doses 0.01-0.1 mg/kg i.v., 5 days after reperfusion): 0.05 mg/kg | maximal effect (percentage of neuroprotection) ([15]; hippocampal region CA1, at 0.05 mg/kg i.v. at onset of reperfusion): 35% | half effective concentration ([15]; hippocampal region CA1): 0.025 mg/kg

CC(C)(C)[N+]([O-])=Cc1ccc(S(=O)(=O)[O-])cc1S(=O)(=O)[O-].[Na+].[Na+] [NXY-059, reference compound]
infarct volume (as percentages) ([1]; NXY-059 40.0 mg/kg i.p. at onset of reperfusion): 20.37±0.93% | therapeutic window (global cerebral ischemia [3]; NXY-059 40 mg/kg i.v., compared to F2): narrow therapeutic window compared to F2 | activity index (exploration activity test, Y-maze) (global cerebral ischemia [8]): neurological deficit was similar to the one obtained for VEH | neurological deficit score (NDS) vs vehicle (global cerebral ischemia [10]; NXY-059 40 mg/kg i.v. 0-48 h after reperfusion): did not improve the NDS | neuronal apoptosis (TUNEL) vs vehicle ([11]; NXY-059 40 mg/kg i.v. between 0 and 48 h after reperfusion): did not afford a significant decrease in the neuronal apoptosis | alternation index (spatial recognition test, Y-maze) (global cerebral ischemia [12]): no significant differences when compared to the scores of the control group | neuronal death (Fluoro-Jade B) ([13]; NXY-059 40 mg/kg i.v. 1-48 h after reperfusion): did not induce a decrease in neuronal damage | neuronal death (Fluoro-Jade B) ([13]; NXY-059 40 mg/kg i.v. at reperfusion onset (0 h), 40 mg/kg): lower neuroprotective effect; also recorded: only induced a significant decrease of neuronal damage administered at the onset of the reperfusion | viable neurons (S6-positive cells) in hippocampal CA1 [14]: did not recover the damage observed
